# Measurements taken from the supplement of paper PMC13380429.
# Experiments:
# Details in all cases: 72 h
# HepG2 [1] = test: cell viability relative to DMSO; higher = less toxic
# Calu-3 [2] = test: as above
# Vero E6 [3] = test: as above
# Caco-2 [4] = test: as above
# HepG2 [5] = test: relative viability EC50 (midpoint between 100% and the lowest measured viability); higher = less toxic
# Calu-3 [6] = test: as above
# Vero E6 [7] = test: as above
# Caco-2 [8] = test: as above
# HepG2 [9] = test: drug sensitivity score (DSS) for viability; higher = more toxic; extreme values may be limits of the assay
# Calu-3 [10] = test: as above
# Vero E6 [11] = test: as above
# Caco-2 [12] = test: as above
# U2OS [13] = test: cell viability relative to DMSO; higher = less toxic
# U2OS [14] = test: relative viability EC50 (midpoint between 100% and the lowest measured viability); higher = less toxic
# U2OS [15] = test: drug sensitivity score (DSS) for viability; higher = more toxic; extreme values may be limits of the assay
Structure (SMILES),cell viability (HepG2 [1]; 1 nM),cell viability (HepG2 [1]; 10 nM),cell viability (HepG2 [1]; 100 nM),cell viability (HepG2 [1]; 1000 nM),cell viability (HepG2 [1]; 10000 nM),cell viability (Calu-3 [2]; 1 nM),cell viability (Calu-3 [2]; 10 nM),cell viability (Calu-3 [2]; 100 nM),cell viability (Calu-3 [2]; 1000 nM),cell viability (Calu-3 [2]; 10000 nM),cell viability (Vero E6 [3]; 1 nM),cell viability (Vero E6 [3]; 10 nM),cell viability (Vero E6 [3]; 100 nM),cell viability (Vero E6 [3]; 1000 nM),cell viability (Vero E6 [3]; 10000 nM),cell viability (Caco-2 [4]; 1 nM),cell viability (Caco-2 [4]; 10 nM),cell viability (Caco-2 [4]; 100 nM),cell viability (Caco-2 [4]; 1000 nM),cell viability (Caco-2 [4]; 10000 nM),relative viability EC50 (HepG2 [5]),relative viability EC50 (Calu-3 [6]),relative viability EC50 (Vero E6 [7]),relative viability EC50 (Caco-2 [8]),drug sensitivity score (HepG2 [9]),drug sensitivity score (Calu-3 [10]),drug sensitivity score (Vero E6 [11]),drug sensitivity score (Caco-2 [12]),cell viability (U2OS [13]; 1 nM),cell viability (U2OS [13]; 10 nM),cell viability (U2OS [13]; 100 nM),cell viability (U2OS [13]; 1000 nM),cell viability (U2OS [13]; 10000 nM),relative viability EC50 (U2OS [14]),drug sensitivity score (U2OS [15])
COC(=O)[C@H](NC(=O)c1cc(-c2ccccc2)nc2ccccc12)c1ccccc1,91.4%,99.6%,96.4%,89.6%,103%,104%,93%,101%,102%,103%,92.6%,91.3%,91.5%,92.7%,100%,110%,94.9%,106%,104%,109%,> 10 µM,> 10 µM,> 10 µM,> 10 µM,0,0,0,0,,,,,,,
COc1cc(OC)c(NC(=O)Nc2cc(C)on2)cc1Cl,102%,108%,97%,110%,103%,86.7%,98.4%,97.2%,95.1%,90%,99%,104%,102%,104%,96.8%,98.9%,102%,90.3%,96.3%,90%,> 10 µM,> 10 µM,> 10 µM,> 10 µM,0,0,0,0,97%,99.9%,97.2%,98.4%,97.4%,> 10 µM,0
